The target in one test is T1, 5-lipoxygenase (Rattus norvegicus, UniProt P12527).
T1 construct: endogenous in cells; host or cells: RBL-1 (rat basophilic leukemia cells)
T1 sequence (P12527 1-673): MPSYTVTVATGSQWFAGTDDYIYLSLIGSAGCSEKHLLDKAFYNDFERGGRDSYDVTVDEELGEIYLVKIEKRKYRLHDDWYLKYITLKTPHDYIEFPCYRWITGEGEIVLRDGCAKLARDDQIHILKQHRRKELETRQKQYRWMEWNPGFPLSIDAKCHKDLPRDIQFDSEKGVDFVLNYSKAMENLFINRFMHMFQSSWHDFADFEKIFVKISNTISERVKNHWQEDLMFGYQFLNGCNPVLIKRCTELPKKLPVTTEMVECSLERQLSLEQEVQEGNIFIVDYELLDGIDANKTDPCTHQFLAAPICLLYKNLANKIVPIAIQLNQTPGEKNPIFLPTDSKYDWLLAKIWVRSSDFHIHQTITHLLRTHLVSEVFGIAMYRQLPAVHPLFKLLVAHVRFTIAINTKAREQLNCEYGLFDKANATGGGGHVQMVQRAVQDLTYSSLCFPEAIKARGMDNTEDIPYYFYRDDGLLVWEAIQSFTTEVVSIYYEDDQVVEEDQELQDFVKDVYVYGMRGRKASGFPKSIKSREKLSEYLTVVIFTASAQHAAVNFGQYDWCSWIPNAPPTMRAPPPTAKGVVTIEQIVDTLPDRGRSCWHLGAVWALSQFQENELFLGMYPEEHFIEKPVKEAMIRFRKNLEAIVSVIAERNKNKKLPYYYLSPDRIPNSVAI
As to the kind of experiment: Inhibition of 5-lipoxygenase (5-HETE production in RBL-1 cells). The test is classed as cell-based. To be noted: for inhibition at 1 µM: 10^-6 M; for inhibition at 0.1 µM: 10^-7 M; for inhibition at 0.01 µM: 10^-8 M. As for the experimental part:
10^7 RBL-1 cells (rat basophilic leukemia cells) were suspended in 0.5 ml of MCM (mast cell medium). […] Then 4 ml of ethanol was added, and the mixture was well shaken and kept at room temperature for 10 min.
The mixture was centrifuged for 10 min. (2000 rpm), and the supernatant was separated. The supernatant obtained was concentrated to dryness under reduced pressure. To the residue 0.5 ml of 60 v/v % aqueous methanol was added. One hundred μl of this solution was subjected to high performance liquid chromatography for quantitative analysis of 5-HETE (5-hydroxyeicosatetraenoic acid). The amount of 5-HETE was determined by measurement of the absorbance at 237 nm with a UV absorption monitor.
The inhibitory effect (IE) of production of 5-HETE is expressed by (1-b/a)×100, wherein a is the peak height or the area corrected with the peak due to the internal standard in the absence of the compound (I) or a pharmaceutically acceptable salt thereof, and b is the peak height or peak area corrected with the peak due to the internal standard in the presence of the compound (I) or a pharmaceutically acceptable salt thereof.

Test [1] has as its system lipid peroxide production in rat brain homogenates. As to the kind of experiment: Inhibitory action on lipid peroxide production in rat brain homogenates. To be noted: 5 v/v % rat brain homogenate, pH 7.4, 1 hour at 37° C.; read-out: Inhibition (IC50) of lipid peroxide production. The test is classed as biochemical. As for the experimental part:
The male SD rat (12 weeks) brain tissue was extracted under anesthesia after depletion. The extracted brain tissue was used as 5 v/v % homogenate in phosphate buffer (pH 7.4). After incubation of the homogenate for 1 hour at 37° C., the peroxide produced was determined by the thiobarbituric acid method according to the method described in Analytical Biochemistry, 95, 551 (1979).
Before incubation, test compounds were added in 5 v/v % homogenate so that their final concentration becomes 10^-5 M. […]

Test [2] has as its system generation of HHT in rat platelets. Put plainly: Inhibitory effect on the generation of 12-hydroxyheptadeca-5,8,10-trienoic acid (HHT) in rat platelets. The test is classed as cell-based. Conditions: rat platelet rich plasma; for inhibition at 100 µM: 10^-4 M; for inhibition at 10 µM: 10^-5 M. As for the experimental part:
Blood was collected in 3.2 v/v % sodium citrate (0.8 ml for 7.2 ml of blood) from the abdominal aorta of male Wister rats (Jcl, 12 to 15 weeks) anesthesized with pentobarbital. Platelet rich plasma (PRP) was obtained by centrifuging the blood at 800 rpm for 10 min at room temperature. Platelet poor plasma (PPP) was prepared by centrifuging the remaining blood at 3,000 rpm for 10 min. The platelet concentration of PRP was adjusted to 1,000,000/μl with PPP. […]
The reaction was stopped by adding 100 ml of ethanol and the mixture was allowed to stand for 10 min. at room temperature. The reaction mixture was centrifuged at 2,000 rpm for 10 min. and the supernatant obtained was evaporated. To the concentrate, 0.2 ml of 60 v/v % aqueous ethanol was added.
100 μl of this solution was subjected to high performance liquid chromatography for quantitative analysis of HHT. The amount of HHT was determined by measurement of absorbance at 237 nm with a UV absorption monitor.
The inhibitory effect (IE) on the generation of HHT is expressed by (1-b/a)×100, wherein a is the peak height or the peak area corrected with the peak due to the internal standard in the absence of the compound (I) or a pharmaceutically acceptable salt thereof, and b is the peak height or the peak area corrected with the peak due to the internal standard in the compound (I) or a pharmaceutically acceptable salt thereof.

What is called inhibition is the drop in the measured response relative to a control, in per cent. A high value points to a strong effect. What is called IC50 is the midpoint of a concentration-inhibition curve.

Regarding `Cc1c(C)c2c(c(C)c1O)C(c1cccnc1)C(C)(C)O2` (stereo not drawn) [Example 1, 5-hydroxy-2,2,4,6,7-pentamethyl-3-(3-pyridyl)-2,3-dihydrobenzofuran], at 5-lipoxygenase, the inhibition at 1 µM worked out at 89%, 0.1 µM produced 57% inhibition and the inhibition at 0.01 µM was determined as 16%. Also, the IC50 in test [1] came out at 220 nM. In test [2], this compound yielded an inhibition at 100 µM of 76% and an inhibition at 10 µM of 47%.
At 5-lipoxygenase, `Cc1c(C)c2c(c(C)c1O)C(c1cccnc1)C1(CCCC1)O2` (stereo not drawn) [Example 2] yielded an inhibition at 1 µM of 91%, an inhibition at 0.1 µM of 70% and an inhibition at 0.01 µM of 18%. Also, in test [1], the IC50 is 750 nM. Further, in test [2], at 100 µM the inhibition was 79% and the inhibition at 10 µM is 52%.
Take `Cc1c(C)c2c(c(C)c1O)C(c1cccnc1)C1(CCCCC1)O2` (stereo not drawn) [Example 3, 5-hydroxy-4,6,7-trimethyl-3-(3-pyridyl)-3H-benzofuran-2-spirocyclohexane]: at 5-lipoxygenase, testing at 1 µM gave an inhibition of 91%, testing at 0.1 µM gave an inhibition of 64% and the inhibition at 0.01 µM is 20%. For the same compound, the IC50 in test [1] was 150 nM. Besides, in test [2], testing at 100 µM gave an inhibition of 40% and the inhibition at 10 µM was 7%.
For `Cc1c(C)c2c(c(C)c1O)C(c1ccccn1)C(C)(C)O2` (stereo not drawn) [Example 4], at 5-lipoxygenase, 1 µM produced 98% inhibition, the inhibition at 0.1 µM was 18% and the inhibition at 0.01 µM came out at 0%. In addition, the IC50 in test [1] stood at 250 nM. Also, in test [2], testing at 100 µM gave an inhibition of 29% and testing at 10 µM gave an inhibition of 9%.
As for `Cc1c2c(c3ccccc3c1O)OC(C)(C)C2c1cccnc1` (stereo not drawn) [Example 5], at 5-lipoxygenase, the inhibition at 1 µM was 99%, the inhibition at 0.1 µM came out at 22% and the inhibition at 0.01 µM was 0%. Further, the IC50 in test [1] was determined as 120 nM. Moreover, in test [2], 100 µM produced 84% inhibition and testing at 10 µM gave an inhibition of 54%.
In the case of `Cc1c(C)c2c(c(C)c1O)C(c1ccccc1)C(C)(C)O2` (stereo not drawn) [Example 6, 5-hydroxy-2,2,4,6,7-pentamethyl-3-phenyl-2,3-dihydrobenzofuran], at 5-lipoxygenase, testing at 1 µM gave an inhibition of 92%, at 0.1 µM the inhibition was 18% and the inhibition at 0.01 µM was determined as 0%. In addition, the half-inhibitory concentration (IC50) in test [1] is 130 nM. Also, in test [2], 100 µM produced 49% inhibition and the inhibition at 10 µM turned out to be 7%.

Values taken from patent US4857516A, “Coumaran derivatives and their pharmaceutical use” (Takeda Chemical Industries, Ltd., priority 1986, dated 1989).
